In brackets after ≈: the same amount, converted by molar mass. Where two headings read alike, the source gives them in different places. Square brackets hold non-standard residues; d marks the D form. Peptide text beside a SMILES is read from it. Aib = CC(C)(N)C(=O)O
Legend:
M. smegmatis [1] = test system: M. smegmatis
M. smegmatis [2] = test system: M. smegmatis; remark: listed apart in the source
ClpC (S437P) = ClpC (S437P) (Mycolicibacterium smegmatis, UniProt A0R574, S437P); assay: biochemical; format: binding, Mycobacterium smegmatis
Sequence of ClpC (S437P) (A0R574 whole entry S437P, looked up): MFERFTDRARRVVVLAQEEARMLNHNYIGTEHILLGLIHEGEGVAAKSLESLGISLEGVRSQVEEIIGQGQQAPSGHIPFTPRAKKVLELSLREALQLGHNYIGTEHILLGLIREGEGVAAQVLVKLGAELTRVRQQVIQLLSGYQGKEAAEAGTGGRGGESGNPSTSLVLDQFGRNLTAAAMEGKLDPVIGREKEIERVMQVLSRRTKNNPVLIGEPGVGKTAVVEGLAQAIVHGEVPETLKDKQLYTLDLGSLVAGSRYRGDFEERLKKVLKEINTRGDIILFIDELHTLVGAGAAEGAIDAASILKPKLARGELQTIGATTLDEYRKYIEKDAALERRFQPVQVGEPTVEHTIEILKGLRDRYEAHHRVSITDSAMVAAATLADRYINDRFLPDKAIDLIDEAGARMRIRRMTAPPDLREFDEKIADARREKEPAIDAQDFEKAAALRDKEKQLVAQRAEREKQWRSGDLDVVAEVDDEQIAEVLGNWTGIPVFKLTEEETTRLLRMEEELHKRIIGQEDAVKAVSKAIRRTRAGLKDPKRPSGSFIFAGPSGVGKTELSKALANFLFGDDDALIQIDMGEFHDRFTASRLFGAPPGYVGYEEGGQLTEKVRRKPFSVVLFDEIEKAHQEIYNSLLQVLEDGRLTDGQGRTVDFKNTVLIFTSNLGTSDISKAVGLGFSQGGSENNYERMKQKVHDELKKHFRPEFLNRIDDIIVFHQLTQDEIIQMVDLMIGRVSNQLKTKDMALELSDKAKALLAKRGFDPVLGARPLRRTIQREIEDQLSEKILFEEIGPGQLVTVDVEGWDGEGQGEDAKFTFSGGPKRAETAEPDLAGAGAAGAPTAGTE
Text: (§1) All the binding data were double-referenced by blank cycle and reference flow cell subtraction. The resulting data fit a 1:1 Langmuir binding model using Biacore Insight Evaluation Software 4.0 (GE Healthcare).

ClpC = ClpC (Mycolicibacterium smegmatis, UniProt A0R574); assay: biochemical; format: binding, Mycobacterium smegmatis
Sequence of ClpC (A0R574 whole entry): as the sequence (A0R574 whole entry S437P, looked up) above, with P437S counted along it
Text: as §1

ClpCP1P2 = details: 10 μM COG1410; 1 μM ClpC, 2 μM ClpP1 and ClpP2, 100 μM ATP, 1 μM FITC-casein, 1 h, 37 °C, pH 7.5
[3] = test system: pandrug-resistant Acinetobacter baumannii; design: method as in PMID 36081797; details: cited from earlier work
[4] = […], Tables 2 and 3 print no unit (text b20 uses μg/mL), micro-dilution, 37 °C, 48 h
[5] = […], Tables 2 and 3 print no unit, micro-dilution, 37 °C, 48 h
[6] = strain clpC (KD), Tables 2 and 3 print no unit, micro-dilution, 37 °C, 48 h

Q: For CC(=O)N[C@@H](C)C(=O)N[C@@H](CO)C(=O)NC(C)(C)C(=O)N[C@@H](CC(C)C)C(=O)N[C@@H](CCCNC(=N)N)C(=O)N[C@@H](CCCCN)C(=O)N[C@@H](CC(C)C)C(=O)NC(C)(C)C(=O)N[C@@H](CCCCN)C(=O)N[C@@H](CCCNC(=N)N)C(=O)N[C@@H](CC(C)C)C(=O)N[C@@H](CC(C)C)C(N)=O [COG1410] (Ac-AS[Aib]LRKL[Aib]KRLL-NH2), which MIC (M. smegmatis [1]; strain 35g/pSMT3-ClpC (S437P), micro-dilution, 37 °C, 48 h, triplicate) is on record?
A: The MIC was 256 µg/mL (≈ 182 µM).

Q: And the MIC (M. smegmatis [1]; strain WT/pSMT3-ClpC (overexpression), micro-dilution, 37 °C, 48 h, triplicate)?
A: Its MIC is 16 µg/mL (≈ 11.4 µM).

Q: And the MIC (M. smegmatis [1]; strain clpC (KD), knockdown, micro-dilution, 37 °C, 48 h, triplicate)?
A: The MIC was >256 µg/mL.

Q: What about the MIC (M. smegmatis [1]; strain clpC (KD)/pSMT3-ClpC (S437P), micro-dilution, 37 °C, 48 h, triplicate) of the same compound?
A: The MIC was >256 µg/mL.

Q: And the MBC (M. smegmatis [2]; strain 35g/pSMT3-ClpC (S437P))?
A: Its MBC is >256 µg/mL.

Q: And the MBC (M. smegmatis [2]; strain clpC (KD), knockdown)?
A: The MBC was >256 µg/mL.

Q: And the MBC (M. smegmatis [2]; strain clpC (KD)/pSMT3-ClpC (S437P))?
A: Its MBC is >256 µg/mL.

Q: What about the Kd (ClpC (S437P)) of the same compound?
A: The Kd was 1310 nM.

Q: What about the kon (ClpC (S437P); pH 7.4, read-out: ka) of the same compound?
A: Its kon is 9900 M⁻¹ s⁻¹.

Q: What about the Kd (ClpC) of the same compound?
A: Its Kd is 2030 nM.

Q: What about the kon (ClpC; pH 7.4, read-out: association constant (ka)) of the same compound?
A: Its kon is 5780 M⁻¹ s⁻¹.

Q: For NCC[C@H](O)C(=O)N[C@@H]1C[C@H](N)[C@@H](O[C@H]2O[C@H](CN)[C@@H](O)[C@H](O)[C@H]2O)[C@H](O)[C@H]1O[C@H]1O[C@H](CO)[C@@H](O)[C@H](N)[C@H]1O [amikacin], which MIC (M. smegmatis [1]; [4]) is on record?
A: The MIC was 0.5.

Q: What about the MIC (M. smegmatis [1]; [5]) of the same compound?
A: Its MIC is 0.5 µg/mL (≈ 0.854 µM).

Q: What about the MIC (M. smegmatis [1]; [6]) of the same compound?
A: The MIC was 0.5 µg/mL (≈ 0.854 µM).

Q: Which results are given for CC[C@H]1OC(=O)[C@H](C)[C@@H](O[C@H]2C[C@@](C)(OC)[C@@H](O)[C@H](C)O2)[C@H](C)[C@@H](O[C@@H]2O[C@H](C)C[C@H](N(C)C)[C@H]2O)[C@](C)(O)C[C@@H](C)CN(C)[C@H](C)[C@@H](O)[C@]1(C)O [azithromycin]?
A: MIC (M. smegmatis [1]; [4]): 2; MIC (M. smegmatis [1]; [5]): 2 µg/mL (≈ 2.67 µM); MIC (M. smegmatis [1]; [6]): 2 µg/mL (≈ 2.67 µM)

Q: With CO[C@@]1(NC(=O)Cc2cccs2)C(=O)N2C(C(=O)O)=C(COC(N)=O)CS[C@@H]21 [cefoxitin] as the compound, how does the MIC (M. smegmatis [1]; [4]) read?
A: The MIC was 16.

Q: And the MIC (M. smegmatis [1]; [5])?
A: Its MIC is 16 µg/mL (≈ 37.4 µM).

Q: What about the MIC (M. smegmatis [1]; [6]) of the same compound?
A: Its MIC is 16 µg/mL (≈ 37.4 µM).

Q: With CC(=O)NC[C@H]1CN(c2ccc(N3CCOCC3)c(F)c2)C(=O)O1 [linezolid] as the compound, how does the MIC (M. smegmatis [1]; [4]) read?
A: Its MIC is 1.

Q: What about the MIC (M. smegmatis [1]; [5]) of the same compound?
A: Its MIC is 1 µg/mL (≈ 2.96 µM).

Q: And the MIC (M. smegmatis [1]; [6])?
A: Its MIC is 1 µg/mL (≈ 2.96 µM).

Q: With IRMRIRVLL [antiTB_1080] as the compound, how does the MIC (M. smegmatis [1]; [4]) read?
A: Its MIC is 32.

Q: What about the MIC (M. smegmatis [1]; [5]) of the same compound?
A: The MIC was 128 µg/mL.

Q: What about the MIC (M. smegmatis [1]; [6]) of the same compound?
A: The MIC was > 256 µg/mL.

Q: Which MIC (M. smegmatis [1]) does the source give for LRKLRKRLVRLASHLRKLRKRLL [ApoE23] here?
A: The MIC was 128 µg/mL.

Q: And the MIC (M. smegmatis [1]; [4])?
A: The MIC was 128.

Q: And the MIC (M. smegmatis [1]; [5])?
A: The MIC was > 128 µg/mL.

Q: And the MIC (M. smegmatis [1]; [6])?
A: Its MIC is > 128 µg/mL.

Q: What about the “increase in proteolytic activity, ClpCP1P2 system” value (ClpCP1P2) of the same compound?
A: The value was “substantial increase in proteolytic activity”.

Q: Which anti-mycobacterial activity (M. smegmatis [1]; M. smegmatis, result in words) does the source give for LRVRLASHLRKLRKRLL [COG133] here?
A: Its anti-mycobacterial activity is “did not demonstrate anti-mycobacterial activity”.

Q: What about the MIC (M. smegmatis [1]; [4]) of the same compound?
A: Its MIC is >256.

Q: And the MIC (M. smegmatis [1]; [5])?
A: The MIC was > 256 µg/mL.

Q: What about the MIC (M. smegmatis [1]; [6]) of the same compound?
A: Its MIC is > 256 µg/mL.

Q: And the “increase in proteolytic activity, ClpCP1P2 system” value (ClpCP1P2)?
A: The value was “no influence on proteolytic activity”.

Q: For WKWLKKWIK [antiTB_1026], which MIC (M. smegmatis [1]; [4]) is on record?
A: The MIC was 32.

Q: And the MIC (M. smegmatis [1]; [5])?
A: The MIC was 256 µg/mL.

Q: What about the MIC (M. smegmatis [1]; [6]) of the same compound?
A: The MIC was > 256 µg/mL.

Q: For polymyxin B, which “fold increase of MIC after 55 passages in the presence of sub-MIC agent” value [3] is on record?
A: Its value is 64 fold.

— publication PMC10967448 (Antibiotics, 2024)
